The values below come from ChEMBL document CHEMBL1140102, “Novel A-ring and B-ring modified combretastatin A-4 (CA-4) analogues endowed with interesting cytotoxic activity” (J Med Chem, 2008).

One test has as its system BMEC. Put plainly: Cytotoxicity against BMEC by sulforhodamine B test. It is filed as cell-based. As to conditions: Bos taurus. (In general: Sulforhodamine B stains cellular protein and so reports cell mass.)
Test [1] can be described thus: Displacement of [3H]colchicine from tubulin by scintillation proximity assay. (Loss of bound radioactivity is the signal in a displacement assay; it reports binding, not function.)
Test [2] concerns HT-29. The experiment in a line: Cytotoxicity against human HT29 cells by sulforhodamine B test. It is filed as functional, cell-based.
The next test relates to NCI-H460. Put plainly: Cytotoxicity against human H460 cells by sulforhodamine B test. It is filed as functional, cell-based.
In test [3] the test system is HT-29. The experiment in a line: Cell cycle arrest in human HT29 cells assessed as accumulation at G0/G1 phase at 0.5 uM after 24 hrs by flow cytometry assay. The test is classed as functional. Background: A flow cytometer gives signals particle by particle.
Test [4] deals with HT-29. Put plainly: Cell cycle arrest in human HT29 cells assessed as accumulation at G2/M phase at 0.5 uM after 24 hrs by flow cytometry assay. It is filed as functional.
Test [5] deals with HT-29. The experiment in a line: Cell cycle arrest in human HT29 cells assessed as accumulation at S phase at 0.5 uM after 24 hrs by flow cytometry assay. The test is classed as functional.

pIC50: −log10 of the molar value.

For orientation: pIC50 means −log10 of the IC50, conventionally taken in molar units. A low value points to a large IC50. Turning to `COc1cc(/C=C\c2cc(O)c3ccsc3c2)cc(OC)c1`, the pIC50 is 6.96 in the test with BMEC and 5.42 in test [1].

Regarding `COc1ccc(/C=C/c2cc(OC)c3ccoc3c2)cc1O`, the figures for the pIC50 (with BMEC; in test [1]) were less than 5.00 and 5.21, respectively.

With `COc1cc(/C=C\c2cc(O)c3ccsc3c2)cc2c1OCO2`, the pIC50 was 6.06 in the test with BMEC and 5.31 in test [1].

In the case of `COc1cc(/C=C\c2cc(O)c3ccoc3c2)cc(OC)c1`, the values for the pIC50 (in the test with BMEC; in test [1]) were 6.10 and 5.40, respectively.

As for `COc1ccc(/C=C\c2cc(OC)c3ccsc3c2)cc1O`, the negative logarithm of the IC50 (pIC50) was 6.59 in the test on HT-29 [2], 7.89 in the test with NCI-H460, 7.77 in the test with BMEC and 7.70 in test [1].

With `COc1ccc(/C=C\c2cc(OC)c3occc3c2)cc1O`, the negative logarithm of the IC50 (pIC50) with HT-29 [2] is 6.23; in the test with NCI-H460 it was 7.92; in the test with BMEC, 7.46; in test [1] it was 7.30.

In the case of `COc1cc(/C=C\c2cc(O)c3ccsc3c2)cc2sccc12`, the negative-log IC50 (pIC50) in the test on NCI-H460 is 6.51; in the test with BMEC, 6.60.

As to `COc1ccc(/C=C\c2cc(OC)c3ccsc3c2)cc1N.Cl`, the Activity in the test with HT-29 [3] is on record as 28%; with HT-29 [4], 50%; in the test with HT-29 [5] it was 22%. Further, the negative-log IC50 (pIC50) was 7.68 with HT-29 [2], 7.72 in the test on NCI-H460, 7.70 in the test with BMEC and 5.21 in test [1].

On to `COc1ccc(/C=C\c2cc(OC)c3ccoc3c2)cc1O`, for which the pIC50 in the test on HT-29 [2] is 6.38; with NCI-H460, 7.72; in the test with BMEC, 7.46; in test [1], 7.70.

Compound `COc1ccc(/C=C\c2ccc3c(c2)C(C)(C)CCC3(C)C)cc1O` had a pIC50 in the test on BMEC of less than 5.00.

With `COc1ccc(/C=C\c2cc(OC)c3ccsc3c2)cc1`, the pIC50 in the test on NCI-H460 is 6.96; with BMEC it was 6.91.

For `COc1cc(/C=C\c2cc(O)c3ccoc3c2)cc2c1OCO2`, the negative logarithm of the IC50 (pIC50) is less than 5.52 in the test with BMEC and 5.11 in test [1].

The compound `COc1cc2c(c(OC)c1OC)-c1ccc(OC)c(=O)cc1[C@@H](NC(C)=O)CC2` [COLCHICINE] showed a pIC50 in test [1] of 5.77.

For `COc1ccc(/C=C\c2cc(OC)c(OC)c(OC)c2)cc1O` [COMBRETASTATIN A4], the pIC50 in the test on HT-29 [2] is 6.93; in the test on NCI-H460 it was 8.92; in the test on BMEC it was 8.43; in test [1], 7.00.

Consider `COc1ccc(/C=C\c2cc(OC)c3c(c2)OCO3)cc1O` [Combretastatin A-2], for which the negative logarithm of the IC50 (pIC50) with HT-29 [2] was less than 6.00; in the test on NCI-H460, 7.40; in the test with BMEC it was 7.32.
